Values of other authors as cited in publication PMC12308805, “Ultrahigh-Throughput Virtual Screening Strategies against PPI Targets: A Case Study of STAT Inhibitors” (Journal of Chemical Information and Modeling, 2025).

Tested on: STAT3
Details: cited from earlier work

| Compound | Type (known STAT3 active) |
| --- | --- |
| CC(C)C[C@H](NC(=O)/C=C/c1ccc(OP(=O)(O)O)cc1)C(=O)N1C[C@H]2C[C@H]2[C@H]1C(=O)N[C@@H](CCC(N)=O)COCc1ccccc1 [CHEMBL583727] | Active |

Same assay, conditions: sheet 6QHD_actives_decoys, retrospective screening set for STAT3 SH2 domain (PDB 6QHD); decoys are presumed inactives, not tested; ref DUD-E; cited from earlier work

| Compound | Type |
| --- | --- |
| Cc1ccc(S(=O)(=O)Nc2ccc(N3CCN(CC(=O)NCC(C)C)CC3)cc2C(=O)O)cc1 [Decoy918] | Inactive (Decoy) |
| CCN1C[C@]2(COC)[C@H](O)C[C@H](OC)[C@@]34[C@@H]2[C@@H](OC)[C@@H]([C@@H]13)[C@]1(OC(C)=O)[C@H]2[C@@H](OC(=O)c3ccccc3)[C@](O)(C[C@]24O)[C@@H](OC)[C@@H]1O [Decoy802] | Inactive (Decoy) |
| CCN(CC)c1ccc2c(-c3ccc(S(=O)(=O)NCCSS(C)(=O)=O)cc3S(=O)(=O)[O-])c3ccc(=[N+](CC)CC)cc-3oc2c1 [Decoy829] | Inactive (Decoy) |
| N[C@@H](CCC(=O)N[C@@H](CSCCN(CCSC[C@H](NC(=O)CC[C@H](N)C(=O)O)C(=O)NCC(=O)O)[P@](N)(=O)O)C(=O)NCC(=O)O)C(=O)O [Decoy879] | Inactive (Decoy) |
| Cc1nn(C)cc1CN1CCN(C(=S)Nc2ccc(S(=O)(=O)Nc3ncccn3)cc2)CC1 [Decoy788] | Inactive (Decoy) |
| CCN(CC)S(=O)(=O)c1ccc(OC)c(NC(=O)COc2cc(C)ccc2C(N)=O)c1 [Decoy867] | Inactive (Decoy) |
| CC[C@@]1(c2ccccc2)NC(=O)N(CC(=O)Nc2ccc(S(=O)(=O)Nc3ncccn3)cc2)C1=O [Decoy743] | Inactive (Decoy) |
| O=C(O)CN(CC(=O)O)C[C@@H](Cc1ccc(NCCCCCN2C(=O)C=CC2=O)cc1)N(CC(=O)O)CC(=O)O [Decoy882] | Inactive (Decoy) |
| Cc1ccc(S(=O)(=O)Nc2ccccc2/C=N/CC(O)C/N=C/c2ccccc2NS(=O)(=O)c2ccc(C)cc2)cc1 [Decoy922] | Inactive (Decoy) |
| CCCCSc1nnc(/N=C(\O)CSc2n[nH]c(N/N=C/c3c(C)nn(C(C)C)c3C)n2)s1 [Decoy797] | Inactive (Decoy) |
| Cc1cc(C)cc(NC(=O)COc2ccc(S(=O)(=O)Nc3ccc(C(=O)O)cc3)cc2[N+](=O)[O-])c1 [Decoy932] | Inactive (Decoy) |
| CCN(CC)S(=O)(=O)c1ccc(NC(=O)CSc2n[nH]c(N/N=C/c3ccccc3F)n2)cc1 [Decoy890] | Inactive (Decoy) |
| CCOc1ccc(NC(=O)CCC(=O)NNC(=S)NC(=O)c2cc([N+](=O)[O-])cc([N+](=O)[O-])c2)cc1 [Decoy733] | Inactive (Decoy) |
| CC(=O)O[C@@H]1[C@@H](O)[C@@H](O[C@@H](C/N=C/c2c(O)ccc3ccccc23)[C@@H](CO)O[C@H](O)C/N=C/c2c(O)ccc3ccccc23)O[C@@H](CO)[C@H]1O [Decoy885] | Inactive (Decoy) |
| C=CCOC(=O)c1sc(NC(=O)[C@@H](CC)n2c(N)nnc2SCc2ccccc2Cl)nc1C [Decoy920] | Inactive (Decoy) |
| O=C(CCCCC(=O)Nc1ccc(S(=O)(=O)N2CCCCC2)cc1)Nc1ccc(S(=O)(=O)N2CCCCC2)cc1 [Decoy771] | Inactive (Decoy) |
| CCOC(=O)C1=C(C)N(CCOC)C(=O)/C1=C\c1ccc(CNC(=O)C(=O)Nc2ccc(C(=O)OCC)cc2)o1 [Decoy951] | Inactive (Decoy) |
| CCOC(=O)CCC(=O)O[C@H]1[C@@H](O[C@@H]2[C@H](C)[C@H](O[C@@H]3C[C@@](C)(OC)[C@H](O)[C@H](C)O3)[C@H](C)C(=O)O[C@@H](CC)[C@@](C)(O)[C@H](O)[C@H](C)C(=O)[C@H](C)C[C@@]2(C)O)O[C@@H](C)C[C@H]1N(C)C [Decoy820] | Inactive (Decoy) |
| CC(C)(CC[C@@H](O)[C@@](C)(O)[C@H]1CC[C@@]2(O)C3=CC(=O)[C@H]4C[C@@H](O)[C@@H](O)C[C@]4(C)[C@@H]3CC[C@]12C)O[C@H]1O[C@@H](CO)[C@@H](O)[C@@H](O)[C@H]1O [Decoy905] | Inactive (Decoy) |

Same assay, conditions: sheet 6QHD_actives_decoys; known STAT3 actives of the retrospective screening set; ref ChEMBL / literature; cited from earlier work

| Compound | Type (known STAT3 active) |
| --- | --- |
| CCCC[C@H](CCC(N)=O)NC(=O)[C@@H]1[C@@H]2C[C@@H]2CN1C(=O)[C@H](CC(C)C)NC(=O)/C=C/c1ccc(OP(=O)(O)O)cc1 [CHEMBL583116] | Active |

Same assay, conditions: sheet 6QHD_actives_decoys; retrospective screening set for STAT3 SH2 domain (PDB 6QHD); […]; ref DUD-E; cited from earlier work

| Compound | Type |
| --- | --- |
| CC[C@H](C)N1C(=O)NC(=O)/C(=C/Nc2ccc3c(c2)C[C@]2(C(=O)NC(=O)N=C2O)[C@H]2CN(C)CCN32)C1=O [Decoy502] | Inactive (Decoy) |
| COc1ccc(NS(=O)(=O)c2cccc(NS(=O)(=O)c3cccc([N+](=O)[O-])c3)c2)cc1 [Decoy709] | Inactive (Decoy) |
| COc1cc(S(=O)(=O)N2CCCCC2)ccc1N/C=C1/C(=O)NC(=O)N(c2ccccc2)C1=O [Decoy344] | Inactive (Decoy) |

Same assay, conditions: sheet 6QHD_actives_decoys; retrospective screening set for STAT3 SH2 domain (PDB 6QHD); decoys generated with DUD-E and presumed inactive, not tested; ref DUD-E; cited from earlier work

| Compound | Type |
| --- | --- |
| COc1cc(NC(=O)CSc2n[nH]c(N/N=C/c3cc([N+](=O)[O-])ccc3O)n2)ccc1Cl [Decoy500] | Inactive (Decoy) |
| COc1ccc(CCN2C(=O)[C@H]3[C@@H](C2=O)[C@]2(N[C@@H]3Cc3ccc(O)c(O)c3)C(=O)Nc3ccc(Cl)cc32)cc1OC [Decoy728] | Inactive (Decoy) |
| C/C=C(/C[C@@H](O)N(C=O)Cc1cnc(C)nc1N)SS/C(=C/C)C[C@@H](O)N(C=O)Cc1cnc(C)nc1N [Decoy342] | Inactive (Decoy) |
| Cc1ccc(NC(=O)NC[C@@H](C)Cn2cccn2)cc1NC(=O)NC[C@H](C)Cn1cccn1 [Decoy618] | Inactive (Decoy) |
| COC(=O)[C@@H]1[C@H](NC(=O)[C@@H]2CCOC2)c2cc(NCC(C)(C)C)cnc2N1CCc1c[nH]c2ccccc12 [Decoy468] | Inactive (Decoy) |
| CC[C@H]1OC(=O)[C@@H](C)[C@@H](O[C@@H]2C[C@@](C)(OC)[C@H](O)[C@H](C)O2)[C@@H](C)[C@@H](O[C@H]2O[C@@H](C)C[C@@H](N(C)C)[C@H]2O)[C@](C)(O)C[C@@H](C)/C(=N\OCOCCOC)[C@@H](C)[C@@H](O)[C@@]1(C)O [Decoy580] | Inactive (Decoy) |
| C=CCOC(=O)c1sc(NC(=O)[C@@H](C)n2c(N)nnc2SCc2ccccc2Cl)nc1C [Decoy562] | Inactive (Decoy) |
| Cc1cccn2c(=O)c(/C=C3\SC(=S)N(CCCCCC(=O)O)C3=O)c(NCCN3CCOCC3)nc12 [Decoy714] | Inactive (Decoy) |
| COc1cc(NC(=S)/N=C(/NCCCN2CCOCC2)Nc2nc(C)cc(C)n2)cc(OC)c1OC [Decoy386] | Inactive (Decoy) |
| Nn1c(N/N=C/c2ccc([N+](=O)[O-])cc2)nnc1SCC(=O)Nc1ccc(OC(F)(F)F)cc1 [Decoy441] | Inactive (Decoy) |
| COc1ccc(-n2c(=O)[nH]c3cc([C@@H]4N[C@@H](c5ccc(OC)c(OC)c5)NO4)ccc3c2=O)cc1 [Decoy550] | Inactive (Decoy) |
| COc1ccc(S(=O)(=O)NNC(=O)CCCCC(=O)NNS(=O)(=O)c2ccc(OC)cc2)cc1 [Decoy571] | Inactive (Decoy) |
| CC(=O)O[C@@H]1[C@@H](O)[C@@H](O[C@@H](/C=N\C23CN4CN(CN(C4)C2)C3)[C@@H](CO)O[C@H](O)/C=N/C23CN4CN(CN(C4)C2)C3)O[C@@H](CO)[C@H]1O [Decoy408] | Inactive (Decoy) |
| COC(=O)c1ccc(NC(=O)CSc2nc3ccc(NC(=O)CSc4nnc(-c5ccc(N)cc5)n4C)cc3s2)cc1 [Decoy435] | Inactive (Decoy) |
| CCOC(=O)c1sc(NC(=O)CCCS(=O)(=O)c2nc(-c3ccccc3OC)cc(C(F)(F)F)n2)c(C(N)=O)c1C [Decoy482] | Inactive (Decoy) |
| O=C(Nc1ccc(S(=O)(=O)Nc2ncccn2)cc1)c1cccc(C(=O)Nc2ccc(S(=O)(=O)Nc3ncccn3)cc2)n1 [Decoy668] | Inactive (Decoy) |
| Cc1cc(C)nc(N/C(=N\C(=S)NCCCN2CCOCC2)Nc2ccc(Cn3cncn3)cc2)n1 [Decoy399] | Inactive (Decoy) |
| O=C(CSc1cn[nH]n1)Nc1ccc(-c2nc3ccc(NC(=O)CSc4cn[nH]n4)cc3s2)c(O)c1 [Decoy624] | Inactive (Decoy) |
| Nn1c(SCC(=O)N/N=C/c2ccccc2OCc2ccccc2Cl)nnc1-c1ccncc1 [Decoy718] | Inactive (Decoy) |
| O=C[C@H](O)[C@@H](O)[C@H](O)[C@@H](CO)O[P@](=O)(OC[C@H]1O[C@@H](n2ccc(=O)[nH]c2=O)[C@H](O)[C@@H]1O)OP(=O)(O)O [Decoy701] | Inactive (Decoy) |
| CCCCCOc1ccc([C@H]2C(C(=O)c3ccc4c(c3)OCCO4)=C(O)C(=O)N2CCCN2CCOCC2)cc1OCC [Decoy434] | Inactive (Decoy) |
| CC(=O)OC[C@H]1O[C@@H](O[C@@]2(CO)O[C@@H](CO)[C@@H](OC(C)=O)[C@H]2OC(C)=O)[C@@H](OC(C)=O)[C@@H](OC(C)=O)[C@@H]1O [Decoy643] | Inactive (Decoy) |
| C[C@@H]1O[C@@H](O[C@H]2[C@H](O[C@@H]3CC[C@@H]4C(=CC[C@@H]5[C@@]4(C)C(=O)C[C@]4(C)[C@H]([C@@]6(C)O[C@@H](C(C)(C)O)CC6=O)[C@H](O)C[C@@]54C)C3(C)C)O[C@H](CO)[C@@H](O)[C@@H]2O)[C@H](O)[C@H](O)[C@H]1O [Decoy471] | Inactive (Decoy) |
| O=C(/C=C/c1ccc(O)c2c1[C@@H](C(=O)O[C@@H](Cc1ccc(O)c(O)c1)C(=O)O)[C@H](c1ccc(O)c(O)c1)O2)O[C@H](Cc1ccc(O)c(O)c1)C(=O)O [Decoy572] | Inactive (Decoy) |
| C=C1N=C2C[C@H](c3ccc(OC)c(OC)c3)CC(=O)C2[C@H](c2cc(Br)c(O)c(OCC)c2)C1C(=O)OCCOCC (some centres unmarked) [Decoy369] | Inactive (Decoy) |
| CC[C@H]1OC(=O)[C@H](C)[C@@H](O[C@H]2OC[C@@](C)(OC)[C@@H](O)[C@@H]2C)[C@@H](C)[C@@H](O[C@H]2O[C@H](C)C[C@H](N(C)C)[C@H]2O)[C@](C)(O)C[C@H](C)/C(=N/O)[C@@H](C)[C@@H](O)[C@@]1(C)O [Decoy596] | Inactive (Decoy) |
| CCOC(=O)c1ccc(/N=C2\S[C@H](CC(=O)Nc3ccc(C(=O)OCC)cc3)C(=O)N2CCc2ccc(Cl)cc2)cc1 [Decoy553] | Inactive (Decoy) |
| COc1ccc2[nH]cc(CCN/C(=N\C(=O)CS[C@H]3N=N[C@@H](N)S3)Nc3nc(C)cc(C)n3)c2c1 [Decoy359] | Inactive (Decoy) |
| CC(=O)O[C@H]1[C@@H](O)[C@@H](O[C@@H](/C=N/c2ccc3c(c2)C(=O)NC3=O)[C@@H](CO)O[C@H](O)/C=N/c2ccc3c(c2)C(=O)NC3=O)O[C@@H](CO)[C@H]1O [Decoy463] | Inactive (Decoy) |
